Results on eight compounds are retold here after patent US8410078B2, “Composition and methods to treat cardiac diseases” (University of Connecticut, priority 2006, dated 2013).

One data set has as its system cardiac P2X receptor. The data set is described as follows: Whole-cell voltage clamp of P2 agonist-induced current in WT ventricular myocytes. The data set is classed as cell-based, mouse. Conditions: for Inhibition of the 2-meSATP-induced current by P2X receptor antagonists: PPADS 100 μM, NF449 300 nM, Brilliant Blue G 5 μM, ramp −100 to +50 mV. An excerpt:
Mice displaying the CSQ model of severe cardiomyopathy and heart failure were bred and maintained by methods known in the art. The CSQ transgenic (TG) mice were originally provided by Dr. Larry Jones (Krannert Institute of Cardiology, Indiana University School of Medicine, Indiana), and developed hypertrophy followed by a lethal heart failure phenotype with death near the age of 3 months. Ventricular myocytes were obtained from 3-month old wild type (WT) and CSQ mice of either sex (26 WT, 47 TG) by an enzymatic dissociation procedure. Briefly, the hearts were rapidly excised from mice that had been anesthetized with pentobarbital and treated with 1000 Units of heparin. The aorta was cannulated and the heart perfused in a Langendorff apparatus with oxygenated (95% O2/5% CO2) Ca^2+-free solution (37° C.) for 5 minutes at a rate of 2.5 ml/min. The solution composition was: 126 mM NaCl, 4.4 mM KCl, 1.0 mM MgCl2, 18 mM NaHCO3, 11 mM Glucose, 4 mM HEPES, and 3 mM BDM (2,3-butanedione monoxime), (pH 7.3 adjusted with NaOH). Thereafter, the perfusing solution was changed to that containing 25 μM CaCl2 and liberase (70 μg/ml, Roche Molecular Biochemicals, Inc.) for 8-10 minutes. Cells were sedimented by gravity for 10-15 minutes and the pellet was resuspended in 200 μM Ca^2+-containing Tyrode's solution (containing 3 mM BDM), allowed to settle for 30 minutes at room temperature, and suspended with Tyrode's solution containing: 135 mM NaCl, 5.4 mM KCl, 1.0 mM CaCl2, 1.0 mM MgCl2, 10 mM HEPES and 10 mM dextrose (pH 7.4 adjusted with NaOH). The experiments were carried out at room temperature (22-23° C.) and were completed within 4-6 hours after myocyte isolation.
The whole cell patch-clamp technique was used for these experiments. Electrodes were prepared from borosilicate glass pipettes (1.2 mm i.d.) with a two step pulling procedure and filled with pipette solution. The pipette was connected via an Ag—AgCl wire to the head stage of an amplifier (List EPC-7, Medical Systems, Greenvale, N.Y.) controlled by a computer and Axon pClamp™ software. For voltage clamp experiments, the electrodes were filled with a solution containing: 135 mM cesium aspartate, 5 mM NaCl, 5 mM Mg2ATP, 10 mM HEPES, and 10 mM EGTA (pH 7.3 adjusted with CsOH) with or without 2 mM GDPβS. Electrode resistances were 2-4 MΩ. As soon as electrical contact was established, the superfusion medium was changed to a modified Tyrode's solution (5.4 mM KCl was omitted and 10 mM CsCl and 5 μM ouabain were added to Tyrode's solution to block K^+ currents and the Na/K pump current, respectively). In quantifying the P2 agonist-induced current, the Tyrode's solution contained the indicated concentration of each agent. In studying the effect of a P2 receptor antagonist, both agonist and antagonist were co-applied at the indicated concentrations. The voltage clamp protocol used was a ramp voltage protocol from −100 mV holding potential to +50 mV. The ramp protocol was applied to cells at 20 s intervals for 1 minute. Three current traces from −100 mV to 50 mV were averaged to construct the I-V relationship.

The subject of another data set is P2X4R Tg myocytes. The data set is described as follows: Cyclic AMP enzymatic immunoassay in P2X4R Tg myocytes. The data set is classed as cell-based, mouse. Conditions: 10 minutes, 2-meSATP at 10 μM. The procedure:
Cyclic AMP was determined with an enzymatic immuno-assay kit (EIA, Direct Biotrak EIA kit) according to manufacturer's instructions. The method has been used to estimate cAMP level in dispersed mammalian cardiac ventricular myocytes. In brief, 3-month P2X4R Tg myocytes were isolated and plated in laminin-coated 96 well plate at a density of 1000 cells/well, equilibrated for 1 hour at 37° C., incubated with either phosphate-buffered saline (pH=7.4) or 10 μM 2-meSATP for 10 minutes, and processed for acetylation and subsequent cAMP EIA. cAMP levels were normalized to proteins in each individual well.

Data set [1] concerns Binary P2X4 receptor/CSQ transgenic mice. As to the kind of experiment: Lifespan of binary P2X4 receptor/CSQ transgenic mice given drug in drinking water. The data set is classed as in vivo, mouse. Particulars: 2 mg/ml in drinking water. The procedure: Metoprolol, a beta-adrenergic receptor blocker, was dissolved in drinking water at a concentration of 2 mg/ml. Binary P2X4 receptor/CSQ transgenic mice were fed either regular drinking water (n=8 mice) or drinking water containing the metoprolol (n=8 mice). […] Because overexpression of the P2X4 receptor rescues calsequestrin mice in a similar manner to MRS2339, administration of a beta blocker such as metoprolol with MRS2339 or another P2X receptor agonist should synergistically increase lifespan.

In the next data set the target is T1, rat 5′-ectonucleotidase (Rattus norvegicus, UniProt P21588).
T1 sequence (P21588 29-551): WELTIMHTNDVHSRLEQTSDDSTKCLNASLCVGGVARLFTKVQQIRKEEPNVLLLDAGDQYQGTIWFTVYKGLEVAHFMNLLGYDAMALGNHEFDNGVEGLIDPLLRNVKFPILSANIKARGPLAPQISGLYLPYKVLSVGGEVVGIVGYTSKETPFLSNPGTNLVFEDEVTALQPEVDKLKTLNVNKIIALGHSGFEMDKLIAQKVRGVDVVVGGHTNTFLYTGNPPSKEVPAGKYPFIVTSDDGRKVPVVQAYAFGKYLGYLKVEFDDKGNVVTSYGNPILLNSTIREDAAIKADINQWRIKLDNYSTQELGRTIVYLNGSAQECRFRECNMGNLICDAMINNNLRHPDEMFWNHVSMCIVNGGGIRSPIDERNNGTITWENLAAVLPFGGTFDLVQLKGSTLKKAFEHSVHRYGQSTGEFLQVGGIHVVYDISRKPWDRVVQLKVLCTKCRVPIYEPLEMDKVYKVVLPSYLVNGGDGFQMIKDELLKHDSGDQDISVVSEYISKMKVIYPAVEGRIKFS
Conditions: cited from earlier work.

For the compound `CNc1nc(I)nc2c1ncn2[C@H]1C[C@H](OP(=O)(O)O)[C@]2(COP(=O)(O)O)C[C@H]12` [MRS2500, (1′R,2′S,4′S,5′S)-4-(2-iodo-6-methylamino-purin-9-yl)-1-[(phosphate)-methyl]-2-(phosphate)-bicyclo[3.1.0]hexane], the “Block of the current evoked by 2-meSATP” value in the data set with cardiac P2X receptor (MRS2500 1 μM, 2-meSATP 3 μM, WT myocytes) is on record as “could not block”. For the same compound, in the data set with cardiac P2X receptor (data not shown), the “Block of the current evoked by MRS2339” value is given as “could not block”.
Regarding `O=C(Nc1cc(C(=O)Nc2ccc(S(=O)(=O)O)cc2S(=O)(=O)O)cc(C(=O)Nc2ccc(S(=O)(=O)O)cc2S(=O)(=O)O)c1)Nc1cc(C(=O)Nc2ccc(S(=O)(=O)O)cc2S(=O)(=O)O)cc(C(=O)Nc2ccc(S(=O)(=O)O)cc2S(=O)(=O)O)c1` [NF449, 4,4′,4″,4′″-[carbonylbis(imino-5,1,3-benzenetriyl-bis(carbonylimino))]tetrakis-1,3-benzenedisulfonic acid], the “Inhibition of the 2-meSATP-induced current by P2X receptor antagonists” value in the data set with cardiac P2X receptor (2-meSATP 3 μM) is recorded as “very little inhibitory effect”.
Consider `CSc1nc(N)c2ncn([C@@H]3O[C@H](COP(=O)(O)OP(=O)(O)O)[C@@H](O)[C@H]3O)c2n1` [2-meSADP, 2-methylthioADP], for which the Induction of current result in the data set on cardiac P2X receptor (3 μM, myocytes with a full response to 3 μM 2-meSATP) is recorded as “failed to induce any current”.
Consider `CC(C)NCC(O)c1ccc(O)c(O)c1` (stereo not drawn) [isoproterenol], for which the “Intracellular cyclic AMP level” value with P2X4R Tg myocytes is 16.6 ± 1.53 pmol/mg.
For the compound `COCCc1ccc(OCC(O)CNC(C)C)cc1` (stereo not drawn) [Metoprolol], the Median lifespan in data set [1] amounted to 491 days.
`Nc1ncnc2c1ncn2C1C(O)C(O)C2(COP(=O)(O)O)CC12` (stereo not drawn) [(N) methanocarba AMP]: the “Rate of hydrolysis relative to the rate of hydrolysis of AMP” value on rat 5′-ectonucleotidase is 0.14%.
On to `CCOc1ccc(Nc2ccc(/C(=C3C=C/C(=[N+](/CC)Cc4cccc(S(=O)(=O)[O-])c4)C=C/3C)c3ccc(N(CC)Cc4cccc(S(=O)(=O)[O-])c4)cc3C)cc2)cc1.[Na+]` [Brilliant Blue G], for which the “Inhibition of the 2-meSATP-induced current by P2X receptor antagonists” value with cardiac P2X receptor (2-meSATP 3 μM) is listed as “very little inhibitory effect”.
The same measure, in the same setting: the entry for `Cc1nc(N=Nc2ccc(S(=O)(=O)O)cc2S(=O)(=O)O)c(COP(=O)(O)O)c(C=O)c1O` [PPADS] is “partially inhibit”.
